Experimental data as given in US20200339691A1, “PROTEINACEOUS MOLECULES AND USES THEREFOR” (priority 2018, published 2020).
Where a SMILES comes first, the peptide text is derived from it. The star is where a group is joined. Myristoyl = CCCCCCCCCCCCCC(=O)*

What was measured:
[1] = tested on: CD44^hiCD24^lo CSCs in MDA-MB-231 cells; experiment: FACS analysis of CD44^hiCD24^lo cancer stem cells in MDA-MB-231 cells treated with P1 analogues; type: cell-based, human; settings: 50 μM peptide, 48 hours; for CD44^hiCD24^lo CSCs (%) / COI, Live Single CD44^hiCD24^lo CSCs (Cell Count): n = 1; for Average Inhibition of CSCs (%) / CD44^hiCD24^lo CSCs (%) Repeat 1 / CD44^hiCD24^lo CSCs (%) Repeat 2 / CD44^hiCD24^lo CSCs (%) Repeat 3: n = 3
Method: Analogues of P1 (Table 6) were designed and synthesized in accordance with the procedure of Example 5. The ability of these analogues to inhibit cancer stem cells was determined using FACS analysis on MDA-MB-231 cells, which constitutively contain approximately 90% CD44^hiCD24^lo cancer stem cells, treated with the peptides.
(§1) Non-adherent cells were removed during the washing steps.

MDA-MB-231 cells = type: cell-based, human; settings: 50 μM peptide, 48 hours, n = 1
Text: as §1
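Wherever COI, Live Single Cells (Cell Count) is given: live means Hoechst-negative events among single cells.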

## CCCCCCCCCCCCCC(=O)N[C@@H](CC(C)C)C(=O)N[C@H](C(=O)N[C@@H](Cc1ccccc1)C(=O)N[C@H](C(=O)N[C@@H](Cc1ccccc1)C(=O)N[C@@H](CCCNC(=N)N)C(=O)N[C@@H](CCC(=O)O)C(=O)N[C@@H](CCCNC(=N)N)C(=O)N[C@@H](CCCCN)C(=O)NCC(=O)N[C@@H](CCCNC(=N)N)C(=O)N[C@@H](CCSC)C(=O)N[C@@H](CCSC)C(=O)N[C@@H](CC(=O)O)C(=O)N[C@H](C(=O)N[C@@H](CCCCN)C(=O)N[C@@H](CCCCN)C(N)=O)C(C)C)[C@@H](C)CC)[C@@H](C)O [Peptide 2853821, Myristoyl-LTFIFRERKGRMMDVKK-NH2] (Myristoyl-LTFIFRERKGRMMDVKK-NH2)
[1]
  Inhibition of CSCs (%) Repeat 1: 85.54%
  Inhibition of CSCs (%) Repeat 2: 87.64%
  Inhibition of CSCs (%) Repeat 3: 89.89%
  CD44^hiCD24^lo CSCs (%): 13.00%
  COI, Live Single CD44^hiCD24^lo CSCs (Cell Count): 289
  Average Inhibition of CSCs (%): 87.69%
  CD44^hiCD24^lo CSCs (%) Repeat 1: 12.96%
  CD44^hiCD24^lo CSCs (%) Repeat 2: 11.09%
  CD44^hiCD24^lo CSCs (%) Repeat 3: 9.08%
MDA-MB-231 cells
  COI (Cell Count): 2756
  COI, Live Single Cells (Cell Count): 2223
  COI, Single (Cell Count): 2240
  Total Cell Count: 7421

## CCCCCCCCCCCCCC(=O)N[C@@H](CC(C)C)C(=O)N[C@H](C(=O)N[C@@H](Cc1ccccc1)C(=O)N[C@H](C(=O)N[C@@H](Cc1ccccc1)C(=O)N[C@@H](CCCNC(=N)N)C(=O)N[C@@H](CC(C)C)C(=O)N[C@@H](CCCNC(=N)N)C(=O)N[C@@H](CCCCN)C(=O)NCC(=O)N[C@@H](CCCNC(=N)N)C(=O)N[C@@H](CCC(=O)O)C(=O)N[C@@H](CCSC)C(=O)N[C@@H](CC(=O)O)C(=O)N[C@H](C(=O)N[C@@H](CCCCN)C(=O)N[C@@H](CCCCN)C(N)=O)C(C)C)[C@@H](C)CC)[C@@H](C)O [Peptide 2853832, Myristoyl-LTFIFRLRKGREMDVKK-NH2] (Myristoyl-LTFIFRLRKGREMDVKK-NH2)
[1]
  Inhibition of CSCs (%) Repeat 1: 93.78%
  Inhibition of CSCs (%) Repeat 2: 94.44%
  Inhibition of CSCs (%) Repeat 3: 94.90%
  CD44^hiCD24^lo CSCs (%): 2.48%
  COI, Live Single CD44^hiCD24^lo CSCs (Cell Count): 11
  Average Inhibition of CSCs (%): 94.37%
  CD44^hiCD24^lo CSCs (%) Repeat 1: 5.58%
  CD44^hiCD24^lo CSCs (%) Repeat 2: 4.99%
  CD44^hiCD24^lo CSCs (%) Repeat 3: 4.58%
MDA-MB-231 cells
  COI (Cell Count): 674
  COI, Live Single Cells (Cell Count): 444
  COI, Single (Cell Count): 515
  Total Cell Count: 2068

## CCCCCCCCCCCCCC(=O)N[C@H](C(=O)N[C@@H](Cc1ccccc1)C(=O)N[C@H](C(=O)N[C@@H](Cc1ccccc1)C(=O)N[C@@H](CCCNC(=N)N)C(=O)N[C@@H](CC(C)C)C(=O)N[C@@H](C)C(=O)N[C@@H](CCCCN)C(=O)NCC(=O)N[C@@H](CCCNC(=N)N)C(=O)N[C@@H](CCSC)C(=O)N[C@@H](CCSC)C(=O)N[C@@H](CC(=O)O)C(=O)N[C@H](C(=O)N[C@@H](CCCCN)C(=O)N[C@@H](CCCCN)C(N)=O)C(C)C)[C@@H](C)CC)[C@@H](C)O [Peptide 2815308, Myristoyl-TFIFRLAKGRMMDVKK-NH2] (Myristoyl-TFIFRLAKGRMMDVKK-NH2)
[1]
  Inhibition of CSCs (%) Repeat 1: 51.70%
  Inhibition of CSCs (%) Repeat 2: 45.08%
  Inhibition of CSCs (%) Repeat 3: 50.47%
  CD44^hiCD24^lo CSCs (%): 54.60%
  COI, Live Single CD44^hiCD24^lo CSCs (Cell Count): 89
  Average Inhibition of CSCs (%): 49.08%
  CD44^hiCD24^lo CSCs (%) Repeat 1: 43.29%
  CD44^hiCD24^lo CSCs (%) Repeat 2: 49.27%
  CD44^hiCD24^lo CSCs (%) Repeat 3: 44.44%
MDA-MB-231 cells
  COI (Cell Count): 340
  COI, Live Single Cells (Cell Count): 163
  COI, Single (Cell Count): 301
  Total Cell Count: 9921

## CCCCCCCCCCCCCC(=O)N[C@@H](CC(C)C)C(=O)N[C@H](C(=O)N[C@@H](Cc1ccccc1)C(=O)N[C@H](C(=O)N[C@@H](Cc1ccccc1)C(=O)N[C@@H](CCCNC(=N)N)C(=O)N[C@@H](CC(C)C)C(=O)N[C@@H](CCCNC(=N)N)C(=O)N[C@@H](CCCCN)C(=O)N[C@@H](CCCCN)C(=O)N[C@@H](CCCNC(=N)N)C(=O)N[C@@H](CCSC)C(=O)N[C@@H](CCSC)C(=O)N[C@@H](CC(=O)O)C(=O)N[C@H](C(=O)N[C@@H](CCCCN)C(=O)N[C@@H](CCCCN)C(N)=O)C(C)C)[C@@H](C)CC)[C@@H](C)O [Peptide 2853828, Myristoyl-LTFIFRLRKKRMMDVKK-NH2] (Myristoyl-LTFIFRLRKKRMMDVKK-NH2)
[1]
  Inhibition of CSCs (%) Repeat 1: 89.25%
  Inhibition of CSCs (%) Repeat 2: 91.29%
  Inhibition of CSCs (%) Repeat 3: 90.17%
  CD44^hiCD24^lo CSCs (%): 10.71%
  COI, Live Single CD44^hiCD24^lo CSCs (Cell Count): 3
  Average Inhibition of CSCs (%): 90.23%
  CD44^hiCD24^lo CSCs (%) Repeat 1: 9.64%
  CD44^hiCD24^lo CSCs (%) Repeat 2: 7.81%
  CD44^hiCD24^lo CSCs (%) Repeat 3: 8.82%
MDA-MB-231 cells
  COI (Cell Count): 182
  COI, Live Single Cells (Cell Count): 28
  COI, Single (Cell Count): 146
  Total Cell Count: 3309

## CCCCCCCCCCCCCC(=O)N[C@@H](CC(C)C)C(=O)N[C@H](C(=O)N[C@@H](Cc1ccccc1)C(=O)N[C@H](C(=O)N[C@@H](Cc1ccccc1)C(=O)N[C@@H](CCCNC(=N)N)C(=O)N[C@@H](CC(C)C)C(=O)N[C@@H](CCCNC(=N)N)C(=O)N[C@@H](CCCCN)C(=O)NCC(=O)N[C@@H](CCCNC(=N)N)C(=O)N[C@@H](CCSC)C(=O)N[C@@H](CCC(=O)O)C(=O)N[C@@H](CC(=O)O)C(=O)N[C@H](C(=O)N[C@@H](CCCCN)C(=O)N[C@@H](CCCCN)C(N)=O)C(C)C)[C@@H](C)CC)[C@@H](C)O [Peptide 2853834, Myristoyl-LTFIFRLRKGRMEDVKK-NH2] (Myristoyl-LTFIFRLRKGRMEDVKK-NH2)
[1]
  Inhibition of CSCs (%) Repeat 1: 91.98%
  Inhibition of CSCs (%) Repeat 2: 92.08%
  Inhibition of CSCs (%) Repeat 3: 92.04%
  CD44^hiCD24^lo CSCs (%): 5.76%
  COI, Live Single CD44^hiCD24^lo CSCs (Cell Count): 22
  Average Inhibition of CSCs (%): 92.03%
  CD44^hiCD24^lo CSCs (%) Repeat 1: 7.18%
  CD44^hiCD24^lo CSCs (%) Repeat 2: 7.11%
  CD44^hiCD24^lo CSCs (%) Repeat 3: 7.14%
MDA-MB-231 cells
  COI (Cell Count): 890
  COI, Live Single Cells (Cell Count): 382
  COI, Single (Cell Count): 660
  Total Cell Count: 4207
